The test system of one assay is FADD−/− Jurkat cells. Briefly: Necroptosis inhibition assay, TNF-α-induced necroptosis (CellTiter-Glo 2.0). The class given is cell-based, human. Particulars: TNF-α 15 ng/mL; for Necroptosis inhibition assay (Rescue %) 1 μM: compound 1 μM; for Necroptosis inhibition assay (Rescue %) 10 μM: compound 10 μM. In short, it runs like this: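 Compound is added to cells at final concentrations of 0.1, 1 and 10 μM and left 30 minutes at room temperature. Necroptosis is induced with 15 ng/mL TNF-α, culture continues 20 to 24 hours at 37° C, and ATP-based luminescence reports viability.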
For orientation: In ATP-based viability assays light output follows the ATP content of the culture.

Assay [1] addresses T1, MLKL (Homo sapiens, UniProt Q8NB16).
T1 sequence (Q8NB16 1-471): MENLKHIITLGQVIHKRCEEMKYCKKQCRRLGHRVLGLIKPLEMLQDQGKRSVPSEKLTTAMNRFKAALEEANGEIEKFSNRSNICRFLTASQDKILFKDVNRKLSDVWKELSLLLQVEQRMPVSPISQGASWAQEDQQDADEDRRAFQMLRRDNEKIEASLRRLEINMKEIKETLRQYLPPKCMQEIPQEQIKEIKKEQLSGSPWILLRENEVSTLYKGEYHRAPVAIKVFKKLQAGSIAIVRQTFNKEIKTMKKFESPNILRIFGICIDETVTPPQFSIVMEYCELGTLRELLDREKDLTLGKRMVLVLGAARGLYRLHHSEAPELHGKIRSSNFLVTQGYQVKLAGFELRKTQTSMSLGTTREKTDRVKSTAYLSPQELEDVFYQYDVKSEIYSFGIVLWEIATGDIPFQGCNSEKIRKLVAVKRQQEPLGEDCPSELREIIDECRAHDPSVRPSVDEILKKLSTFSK
The assay is described as follows: MLKL degradation assay in HepG2 cell line (western blot). The class given is cell-based. Further details: endogenous in cells; host or cells: HepG2 or HaCaT. Particulars: cell line not given; for Degradation assay (Degradation %) 1 μM: compound 1 μM; for Degradation assay (Degradation %) 10 μM: compound 10 μM. In short, it runs like this: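 Chemiluminescent western blot signal reports remaining MLKL protein in HepG2 cells after 20-24 h treatment with compound at a final 1 or 10 μM. Equal protein (10-15 μg, BCA) is loaded per lane.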

The target in assay [2] is T1, MLKL. Briefly: Measurement of binding affinity with MLKL receptor (competitive binding assay, Kd). The arrangement: made in house; host or cells: HEK 293 cell line (T7 phage in E. coli BL21-derived host is also described). The method in brief: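 Kd comes from a bead-based competition format: compound-dependent loss of DNA-tagged, HEK 293-expressed MLKL capture, measured as eluate kinase by qPCR. Final DMSO is 0.9%.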

One may read the Kd as the constant that tells how readily two partners part at equilibrium. As for `Nc1ncc(-c2cnn(C3CCN(CCOCCNC(=O)C4CCN(c5cccc6c5C(=O)N(C5CCC(=O)NC5=O)C6=O)CC4)CC3)c2)nc1C(=O)O[C@@H](C(=O)Nc1ccc(F)cc1)c1ccccc1` (stereo partly drawn) [TDH-128, (R)-2-((4-fluorophenyl)amino)-2-oxo-1-phenylethyl 3-amino-6-(1-(1-(2-(2-(1-(2-(2,6-dioxopiperidin-3-yl)-1,3-dioxoisoindolin-4-yl)piperidine-4-carboxamido)ethoxy)ethyl)piperidin-4-yl)-1H-pyrazol-4-yl)pyrazine-2-carboxylate], in the assay on FADD−/− Jurkat cells, the “Necroptosis inhibition assay (Rescue %) 1 μM” value came to 26.22% and the “Necroptosis inhibition assay (Rescue %) 10 μM” value is 56.56%. Further, on MLKL [1], the “Degradation assay (Degradation %) 1 μM” value is listed as 11% and the “Degradation assay (Degradation %) 10 μM” value was 68.52%. This compound gave a Kd at MLKL [2] of 14 nM.

For the compound `Nc1ncc(-c2cnn(C3CCN(CC4CCN(CC(=O)NC5CCN(c6ccc7c(c6)C(=O)N(C6CCC(=O)NC6=O)C7=O)CC5)CC4)CC3)c2)nc1C(=O)OC(C(=O)Nc1ccc(F)cc1)c1ccccc1` (stereo not shown) [TDH-272, 2-((4-fluorophenyl)amino)-2-oxo-1-phenylethyl 3-amino-6-(1-(1-((1-(2-((1-(2-(2,6-dioxopiperidin-3-yl)-1,3-dioxoisoindolin-5-yl)piperidin-4-yl)amino)-2-oxoethyl)piperidin-4-yl)methyl)piperidin-4-yl)-1H-pyrazol-4-yl)pyrazine-2-carboxylate], in the assay on FADD−/− Jurkat cells, the “Necroptosis inhibition assay (Rescue %) 1 μM” value came to 60.73% and the “Necroptosis inhibition assay (Rescue %) 10 μM” value worked out at 72.92%. Further, at MLKL [1], the “Degradation assay (Degradation %) 1 μM” value is on record as 23.54% and the “Degradation assay (Degradation %) 10 μM” value is 44.2%. Also, at MLKL [2], the Kd was 13 nM.

Turning to `Nc1ncc(-c2cnn(C3CCN(CCOC4CCN(C(=O)C5CCN(c6ccc7c(c6)C(=O)N(C6CCC(=O)NC6=O)C7=O)CC5)CC4)CC3)c2)nc1C(=O)OC(C(=O)Nc1ccc(F)cc1)c1ccccc1` (stereo not shown) [TDH-248, 2-((4-fluorophenyl)amino)-2-oxo-1-phenylethyl 3-amino-6-(1-(1-(2-((1-(1-(2-(2,6-dioxopiperidin-3-yl)-1,3-dioxoisoindolin-5-yl)piperidine-4-carbonyl)piperidin-4-yl)oxy)ethyl)piperidin-4-yl)-1H-pyrazol-4-yl)pyrazine-2-carboxylate], in the assay with FADD−/− Jurkat cells, the “Necroptosis inhibition assay (Rescue %) 1 μM” value amounted to 72.38% and the “Necroptosis inhibition assay (Rescue %) 10 μM” value stood at 51.46%. For the same compound, at MLKL [1], the “Degradation assay (Degradation %) 1 μM” value came to 47.44% and the “Degradation assay (Degradation %) 10 μM” value is given as 14.59%. On MLKL [2], this compound came in with a Kd of 8.5 nM.

`Nc1ncc(-c2cnn(C3CCN(CC4CN(c5cccc6c5C(=O)N(C5CCC(=O)NC5=O)C6=O)CCO4)CC3)c2)nc1C(=O)OC(C(=O)Nc1ccc(F)cc1)c1ccccc1` (stereo not shown) [TDH-310, 2-((4-fluorophenyl)amino)-2-oxo-1-phenylethyl 3-amino-6-(1-(1-((4-(2-(2,6-dioxopiperidin-3-yl)-1,3-dioxoisoindolin-4-yl)morpholin-2-yl)methyl)piperidin-4-yl)-1H-pyrazol-4-yl)pyrazine-2-carboxylate]: in the assay with FADD−/− Jurkat cells, the “Necroptosis inhibition assay (Rescue %) 1 μM” value came to 40.08% and the “Necroptosis inhibition assay (Rescue %) 10 μM” value worked out at 41.99%. Besides, at MLKL [1], the “Degradation assay (Degradation %) 1 μM” value came out at 35.97% and the “Degradation assay (Degradation %) 10 μM” value is 27.19%. The same compound came in with a Kd at MLKL [2] of 2.6 nM.

Consider `Nc1ncc(-c2cnn(C3CCN(CCCCCCCCCCNc4ccc5nnn(C6CCC(=O)NC6=O)c(=O)c5c4)CC3)c2)nc1C(=O)O[C@@H](C(=O)Nc1ccc(F)cc1)c1ccccc1` (stereo partly drawn) [TDH-179, (R)-2-((4-fluorophenyl)amino)-2-oxo-1-phenylethyl 3-amino-6-(1-(1-(10-((3-(2,6-dioxopiperidin-3-yl)-4-oxo-3,4-dihydrobenzo[d][1,2,3]triazin-6-yl)amino)decyl)piperidin-4-yl)-1H-pyrazol-4-yl)pyrazine-2-carboxylate], for which, in the assay on FADD−/− Jurkat cells, the “Necroptosis inhibition assay (Rescue %) 1 μM” value amounted to 23.48% and the “Necroptosis inhibition assay (Rescue %) 10 μM” value was 14.8%. In addition, at MLKL [1], the “Degradation assay (Degradation %) 1 μM” value worked out at 78.61% and the “Degradation assay (Degradation %) 10 μM” value was 61.56%. On MLKL [2], this compound gave a Kd of 31 nM.

In the case of `Nc1ncc(-c2cnn(C3CCN(C(=O)CCCCCNC(=O)CNc4cccc5c4C(=O)N(C4CCC(=O)NC4=O)C5=O)CC3)c2)nc1C(=O)O[C@@H](C(=O)Nc1ccc(F)cc1)c1ccccc1` (stereo partly drawn) [TDH-124, (R)-2-((4-fluorophenyl)amino)-2-oxo-1-phenylethyl 3-amino-6-(1-(1-(6-(2-((2-(2,6-dioxopiperidin-3-yl)-1,3-dioxoisoindolin-4-yl)amino)acetamido)hexanoyl)piperidin-4-yl)-1H-pyrazol-4-yl)pyrazine-2-carboxylate], in the assay on FADD−/− Jurkat cells, the “Necroptosis inhibition assay (Rescue %) 1 μM” value was determined as 21.88% and the “Necroptosis inhibition assay (Rescue %) 10 μM” value came out at 27.22%. Further, the “Degradation assay (Degradation %) 10 μM” value on MLKL [1] turned out to be 8.02%. The compound further showed a Kd at MLKL [2] of 12 nM.

Take `Nc1ncc(-c2cnn(C3CCN(CCCCCCCCCCNC(=O)CNc4ccc5nnn(C6CCC(=O)NC6=O)c(=O)c5c4)CC3)c2)nc1C(=O)O[C@@H](C(=O)Nc1ccc(F)cc1)c1ccccc1` (stereo partly drawn) [TDH-173, (R)-2-((4-fluorophenyl)amino)-2-oxo-1-phenylethyl 3-amino-6-(1-(1-(10-(2-((3-(2,6-dioxopiperidin-3-yl)-4-oxo-3,4-dihydrobenzo[d][1,2,3]triazin-6-yl)amino)acetamido)decyl)piperidin-4-yl)-1H-pyrazol-4-yl)pyrazine-2-carboxylate]: in the assay on FADD−/− Jurkat cells, the “Necroptosis inhibition assay (Rescue %) 1 μM” value was determined as 47.27% and the “Necroptosis inhibition assay (Rescue %) 10 μM” value is 35.55%. Further, at MLKL [1], the “Degradation assay (Degradation %) 1 μM” value came to 61.08% and the “Degradation assay (Degradation %) 10 μM” value came to 75.11%. The compound further showed a dissociation constant (Kd) on MLKL [2] of 17 nM.

Regarding `Nc1ncc(-c2cnn(C3CCN(CCC4CCN(C5CC6(CCN(C(=O)Cc7cccc(NC8=CC(=O)N(C9CCC(=O)NC9=O)C8=O)c7)CC6)C5)CC4)CC3)c2)nc1C(=O)O[C@@H](C(=O)Nc1ccc(F)cc1)c1ccccc1` (stereo partly drawn) [TDH-509, (R)-2-((4-fluorophenyl)amino)-2-oxo-1-phenylethyl 3-amino-6-(1-(1-(2-(1-(7-(2-(3-((1-(2,6-dioxopiperidin-3-yl)-2,5-dioxo-2,5-dihydro-1H-pyrrol-3-yl)amino)phenyl)acetyl)-7-azaspiro[3.5]nonan-2-yl)piperidin-4-yl)ethyl)piperidin-4-yl)-1H-pyrazol-4-yl)pyrazine-2-carboxylate], in the assay on FADD−/− Jurkat cells (FADD−/− Jurkat cells), the “Necroptosis inhibition assay (Rescue %) 1 μM” value was determined as 19.06% and the “Necroptosis inhibition assay (Rescue %) 10 μM” value was 5.55%. For the same compound, at MLKL [1], the “Degradation assay (Degradation %) 1 μM” value turned out to be 76.18% and the “Degradation assay (Degradation %) 10 μM” value stood at 73.70%. On MLKL [2], this compound had a Kd of 0.78 nM.

On to `Nc1ncc(-c2cnn(C3CCN(CCCN4CCN(C(=O)C5CN(C6=CC(=O)N(C7CCC(=O)NC7=O)C6=O)C5)CC4)CC3)c2)nc1C(=O)O[C@@H](C(=O)Nc1ccc(F)cc1)c1ccccc1` (stereo partly drawn) [TDH-532, (R)-2-((4-fluorophenyl)amino)-2-oxo-1-phenylethyl 3-amino-6-(1-(1-(3-(4-(1-(1-(2,6-dioxopiperidin-3-yl)-2,5-dioxo-2,5-dihydro-1H-pyrrol-3-yl)azetidine-3-carbonyl)piperazin-1-yl)propyl)piperidin-4-yl)-1H-pyrazol-4-yl)pyrazine-2-carboxylate], for which, in the assay on FADD−/− Jurkat cells (FADD−/− Jurkat cells), the “Necroptosis inhibition assay (Rescue %) 1 μM” value was found to be 21.37% and the “Necroptosis inhibition assay (Rescue %) 10 μM” value is reported as 24.82%. For the same compound, on MLKL [1], the “Degradation assay (Degradation %) 1 μM” value amounted to 73.88% and the “Degradation assay (Degradation %) 10 μM” value is on record as 38.71%. On MLKL [2], this compound displayed a dissociation constant (Kd) of 1.4 nM.

Take `Nc1ncc(-c2cnn(C3CCN(CCC4CCN(C(=O)c5ccc6c(N7CCC(=O)NC7=O)coc6c5)CC4)CC3)c2)nc1C(=O)O[C@@H](C(=O)Nc1ccc(F)cc1)c1ccccc1` [TDH-552, (R)-2-((4-fluorophenyl)amino)-2-oxo-1-phenylethyl 3-amino-6-(1-(1-(2-(1-(3-(2,4-dioxotetrahydropyrimidin-1(2H)-yl)benzofuran-6-carbonyl)piperidin-4-yl)ethyl)piperidin-4-yl)-1H-pyrazol-4-yl)pyrazine-2-carboxylate]: in the assay on FADD−/− Jurkat cells (FADD−/− Jurkat cells), the “Necroptosis inhibition assay (Rescue %) 1 μM” value was determined as 31.97% and the “Necroptosis inhibition assay (Rescue %) 10 μM” value came to 6.25%. Besides, at MLKL [1], the “Degradation assay (Degradation %) 1 μM” value amounted to 92.21% and the “Degradation assay (Degradation %) 10 μM” value was 75.10%. On MLKL [2], this compound returned an equilibrium dissociation constant (Kd) of 0.41 nM.

These data come from patent publication US20240252488A1 (KOREA RESEARCH INSTITUTE OF CHEMICAL TECHNOLOGY, priority 2020, published 2024).
